Assay results as given in publication PMC12396409, “Screening and hit evaluation of a microbial metabolite library against the pathogenic Plasmodium falciparum and Toxoplasma gondii parasites” (International Journal for Parasitology: Drugs and Drug …, 2025).
Read-outs that look alike come from different tables or passages of the source. *1 amine or outer side, *2 acyl side, *3 side chain or, on linkers, in order; H or OH if unused. Where a SMILES comes first, the peptide text is derived from it. Bridges are numbered along the chain shown (N, C = ends). [ ]: non-standard residue; d: D form. The star is where a group is joined. pTerphenylCO(4''-OnC5H11) = CCCCCOc1ccc(-c2ccc(-c3ccc(C(=O)*)cc3)cc2)cc1; Orn(4R-OH,5R-OH) = O=C([C@H](C[C@@H](O)[C@@H](O)N[*:3])N[*:1])[*:2]; hTyr(3S-OH,4S-OH) = N[C@H](C(=O)O)[C@H](O)[C@@H](O)c1ccc(O)cc1; Pro(3S-OH,4S-Me) = C[C@H]1CN[C@H](C(=O)O)[C@H]1O; Hyp = O=C(O)[C@@H]1C[C@@H](O)CN1

Experiments:
[1] = test system: T. gondii RH strain (RH-Tub-eYFP) tachyzoites; experiment: microbe, parasite or virus in culture; format: cell-based, Toxoplasma gondii
[2] = test system: P. falciparum 3D7 parasites; experiment: P. falciparum growth inhibition assay, 2-cycle (120 h treatment), delayed-death screen and dose-response; format: cell-based, Plasmodium falciparum; conditions: 120 h; for activity at 2 µg/mL: Plasmodium falciparum, 3D7
[3] = test system: P. falciparum 3D7 parasites; experiment: P. falciparum growth inhibition assay, 1-cycle (72 h treatment), SYBR DNA staining (library screen at 2 μg/mL and dose-response); format: cell-based, Plasmodium falciparum; conditions: 72 h; for activity at 2 µg/mL: Plasmodium falciparum, 3D7
[4] = T. gondii, 72 h, screen at 2 μg/mL, replicate 1
[5] = T. gondii, 72 h, screen at 2 μg/mL, replicate 2
[6] = P. falciparum, screen at 2 μg/mL, replicate 1
[7] = P. falciparum, screen at 2 μg/mL, replicate 2
[8] = library screen at 2 μg/mL, 72 h, % growth, replicate 1
[9] = library screen at 2 μg/mL, 72 h, % growth, replicate 2
[10] = library screen at 2 μg/mL, % growth, replicate 1
[11] = library screen at 2 μg/mL, % growth, replicate 2
[12] = P. falciparum, parasite screen 2 μg/mL, % growth, replicate 1
[13] = P. falciparum, parasite screen 2 μg/mL, % growth, replicate 2
[14] = library screen at 2 μg/mL, % growth, replicate 1, read-out: Pf_120h_%Growth_Rep1
[15] = library screen at 2 μg/mL, % growth, replicate 2, read-out: Pf_120h_%Growth_Rep2
[16] = library screen at 2 μg/mL, % growth, replicate 1, read-out: Pf_72h_%Growth_Rep1
[17] = library screen at 2 μg/mL, % growth, replicate 2, read-out: Pf_72h_%Growth_Rep2

Compound: CC1=C[C@H](C)C[C@H](C)[C@H](Cc2cnco2)OC(=O)/C(C)=C\[C@H](C)C[C@H](C)[C@H](Cc2cnco2)OC1=O [Conglobatin]
- Tg_72h_%Growth_Rep1 [1, 4]: 127.73%
- Tg_72h_%Growth_Rep2 [1, 5]: 88.01%
- Pf_120h_%Growth_Rep1 [2, 6]: 82.43%
- Pf_120h_%Growth_Rep2 [2, 7]: 72.72%
- Mean ([3]; P. falciparum, 2 μg/mL, mean of both replicates, growth (% of control)): 52.30
- Pf_72h_%Growth_Rep1 [3, 6]: 86.29%
- Pf_72h_%Growth_Rep2 [3, 7]: 18.30%

Compound: CC(=O)NCCc1cnc[nH]1 [Acetylhistamine, N-]
- Tg_72h_%Growth_Rep1 [1, 8]: 95.97%
- Tg_72h_%Growth_Rep2 [1, 9]: 105.85%
- Pf_120h_%Growth_Rep1 [2, 10]: 90.99%
- Pf_120h_%Growth_Rep2 [2, 11]: 93.21%
- Pf_72h_%Growth_Rep1 [3, 10]: 82.83%
- Pf_72h_%Growth_Rep2 [3, 11]: 91.72%

Compound: CCc1cc(O)cc(O)c1C(=O)O[C@H]1[C@H](O)[C@H](OC)[C@H](OC/C2=C\C=C\C[C@H](O)/C(C)=C/[C@H](CC)[C@@H](O[C@@H]3OC(C)(C)[C@@H](OC(=O)C(C)C)[C@H](O)[C@@H]3O)/C(C)=C/C(C)=C/C[C@@H]([C@@H](C)O)OC2=O)O[C@@H]1C [Didechlorofidaxomicin]
- Tg_72h_%Growth_Rep1 [1, 8]: 110.91%
- Tg_72h_%Growth_Rep2 [1, 9]: 90.14%
- Pf_120h_%Growth_Rep1 [2, 10]: 14.52%
- Pf_120h_%Growth_Rep2 [2, 11]: 29.62%
- Pf_72h_%Growth_Rep1 [3, 10]: 4.39%
- Pf_72h_%Growth_Rep2 [3, 11]: 6.69%

Compound: CC(=O)O[C@@H]1CC(=O)OC(C)(C)[C@H]2CC[C@@]3(C)[C@@H](CC=C(C)[C@]34C[C@]3(OC(C)=C(C)C3=O)C(=O)O4)[C@@]21C [Setosusin]
- Tg_72h_%Growth_Rep1 ([1]; T. gondii, 72 h, parasite screen 2 μg/mL, % growth, replicate 1): 121.79%
- Tg_72h_%Growth_Rep2 ([1]; T. gondii, 72 h, parasite screen 2 μg/mL, % growth, replicate 2): 85.10%
- Pf_120h_%Growth_Rep1 [2, 12]: 76.96%
- Pf_120h_%Growth_Rep2 [2, 13]: 104.05%
- Pf_72h_%Growth_Rep1 [3, 12]: 71.51%
- Pf_72h_%Growth_Rep2 [3, 13]: 99.05%

Compound: COC1=C(OC)C(=O)C(C)=CC1=O [Fumigatin methylether]
- Tg_72h_%Growth_Rep1 [1, 8]: 59.41%
- Tg_72h_%Growth_Rep2 [1, 9]: 97.15%
- Pf_120h_%Growth_Rep1 [2, 10]: 25.98%
- Pf_120h_%Growth_Rep2 [2, 11]: 27.21%
- Pf_72h_%Growth_Rep1 [3, 10]: 10.44%
- Pf_72h_%Growth_Rep2 [3, 11]: 11.19%

Compound: C[C@@]1(CO)[C@H](O)CC[C@@]2(C)[C@H]1CC[C@H]1C[C@@H]3C[C@@]12CC[C@]3(O)CO [Aphidicolin]
- percent parasite growth at 2 µg/mL ([1]; Toxoplasma gondii, 72 h, library screen at 2 μg/mL, 72 h, % growth, replicate 1; read-out: Tg_72h_%Growth_Rep1): 1.91%
- percent parasite growth at 2 µg/mL ([1]; Toxoplasma gondii, 72 h, library screen at 2 μg/mL, 72 h, % growth, replicate 2; read-out: Tg_72h_%Growth_Rep2): 0.58%
- activity at 2 µg/mL [2, 14]: 10.5%
- activity at 2 µg/mL [2, 15]: -6.36%
- activity at 2 µg/mL [3, 16]: 7%
- activity at 2 µg/mL [3, 17]: 4.32%

Compound: CCCCCOc1ccc(-c2ccc(-c3ccc(C(=O)N[C@H]4C[C@@H](O)[C@@H](O)NC(=O)[C@@H]5[C@@H](O)[C@@H](C)CN5C(=O)[C@H]([C@@H](C)O)NC(=O)[C@H]([C@H](O)[C@@H](O)c5ccc(O)cc5)NC(=O)[C@@H]5C[C@@H](O)CN5C(=O)[C@H]([C@@H](C)O)NC4=O)cc3)cc2)cc1 [Anidulafungin] ({pTerphenylCO(4''-OnC5H11)}-[Orn(4R-OH,5R-OH)]T[Hyp][hTyr(3S-OH,4S-OH)]T[Pro(3S-OH,4S-Me)]; lactam 1-C)
- percent parasite growth at 2 µg/mL ([1]; Toxoplasma gondii; library screen at 2 μg/mL, 72 h, % growth, replicate 1; read-out: Tg_72h_%Growth_Rep1): 88.8%
- percent parasite growth at 2 µg/mL ([1]; Toxoplasma gondii; library screen at 2 μg/mL, 72 h, % growth, replicate 2; read-out: Tg_72h_%Growth_Rep2): 95.8%
- activity at 2 µg/mL [2, 14]: 162%
- activity at 2 µg/mL [2, 15]: 103%
- activity at 2 µg/mL [3, 16]: 93.1%
- activity at 2 µg/mL [3, 17]: 85.8%

Compound: C=Cc1cc(OC)c2c(c1)c(=O)oc1c2cc(OC)c2c(O)ccc([C@H]3O[C@H](C)[C@@H](O)[C@@H](N(C)C)[C@@H]3O)c21 [Deacetylravidomycin]
- Tg_72h_%Growth_Rep1 [1, 4]: 3.62%
- Tg_72h_%Growth_Rep2 [1, 5]: 4.01%
- Pf_120h_%Growth_Rep1 [2, 6]: 1.87%
- Pf_120h_%Growth_Rep2 [2, 7]: 7.89%
- Pf_72h_%Growth_Rep1 [3, 6]: 3.21%
- Pf_72h_%Growth_Rep2 [3, 7]: 5.95%
